Measurements reported in US8168164B2, “Targeted conjugates and radiation” (Purdue Research Foundation, priority 2006, dated 2012).

Key:
Type in all cases: in vivo, mice
M109 cells [1] = test: Effect of ligand-immunogen conjugates in combination with radiation on tumor volume
Method: (§1) Six to eight-week old (˜20-22 grams) female Balb/c mice were immunized subcutaneously at multiple sites with fluorescein (FITC)-labeled keyhole limpet hemocyanin (KLH) and were injected with GPI-0100, a saponin adjuvant. After assuring that anti-FITC antibody titers were high in all mice (as evidenced by the results of ELISA assays of serum samples of the mice), each animal was injected subcutaneously in the shoulder with 1×10^6 M109 cells following the pre-immunization with FITC-KLH. M109 cells are a syngeneic lung cancer cell line that expresses high levels of the folate receptor. Cancer loci were then allowed to attach and grow. When the tumor size reached about 300 mm^2 (about 2 weeks post M109 cell injection), treatments were initiated (day 1).
The mice were divided into four groups (4 mice per group). One group was injected subcutaneously with phosphate-buffered saline (PBS). Two other groups were injected subcutaneously with 500 nmoles/kg of folate-FITC and 20,000 IU/dose of recombinant human IL-2 in a series of 5 daily injections for three weeks (5 days on and 2 days off). The mice were also injected subcutaneously with IFN-α at 25,000 IU/dose (3 times per week for 3 weeks). One of these groups also received a single dose of radiation of 3 Gy on day 1. The fourth group received only a single dose of radiation of 3 Gy on day 1. The radiation was performed with a device approved for human use and calibrated to give the desired radiation dose to mice.
The efficacy of these therapies were then evaluated by monitoring tumor volumes. Tumor volumes were calculated using the equation V=a×b^2/2, where “a” is the length of the tumor and “b” is the width expressed in millimeters. The tumors were measured using calipers.
The procedures were similar to those described in Example 3 except that the radiation was given in three doses of three Gy each on days 1, 5, and 12.

M109 cells [2] = test: Effect on non-irradiated tumors (tumor volume, two tumor sites); details: folate-FITC
Method: as §1, with “each animal was injected subcutaneously in the shoulder with 1×10^6 M109 cells following” left out
[…] One group was injected subcutaneously with phosphate-buffered saline (PBS). Two other groups were injected subcutaneously with 500 nmoles/kg of folate-FITC and 20,000 IU/dose of recombinant human IL-2 in a series of 5 daily injections for three weeks (5 days on and 2 days off). The mice were also injected subcutaneously with IFN-α at 25,000 IU/dose (3 times per week for 3 weeks). […]
The efficacy of these therapies were then evaluated by monitoring tumor volumes. Tumor volumes were calculated using the equation V=a×b^2/2, where “a” is the length of the tumor and “b” is the width expressed in millimeters. The tumors were measured using calipers. […]

M109 tumors = test: Effect of ligand-immunogen conjugates in combination with taxol on tumor volume; details: folate-FITC and cytokines with 3 doses of taxol (20 mg/kg, every other day) in place of radiation

Nc1nc2ncc(CNc3ccc(C(=O)NC(CCC(=O)NCCNC(=S)Nc4ccc(C(=O)O)c(-c5c6ccc(=O)cc-6oc6cc(O)ccc56)c4)C(=O)O)cc3)nc2c(=O)[nH]1 (stereo not drawn) [folate-FITC]
effect on tumor volume (FIG. 1) (M109 cells [1]; 500 nmoles/kg folate-FITC + IL-2 20,000 IU/dose + IFN-α 25,000 IU/dose s.c., 3 weeks, single dose of radiation of 3 Gy on day 1, FITC-KLH immunized Balb/c mice): act synergistically with low dose radiation to eliminate tumors
effect on tumor volume (FIG. 2) (M109 cells [1]; folate-FITC plus IL-2 and IFN-α, radiation three doses of three Gy on days 1, 5, and 12): synergistic with low dose radiation to eliminate tumors
mice tumor-free at the end of the assay (M109 cells [1]; folate-FITC plus IL-2 and IFN-α, radiation three doses of three Gy on days 1, 5, and 12, 4 mice per group): Two out of the four mice
mice completely tumor-free after treatment (M109 cells [2]; cytokines and radiation (3 Gy days 1 and 5 on tail tumor only), 6 mice per group): Two out of six mice
response of tumors on the same animal that were not irradiated (FIG. 4) (M109 cells [2]; cytokines and radiation, tail tumor irradiated days 1 and 5 with 3 Gy per dose, neck tumor not irradiated): improved response
effect on tumor mass in combination with taxol (FIG. 5) (M109 tumors): not synergistic with taxol
